Where two headings read alike, the source gives them in different places.
How the values were obtained:
Trypanosoma cruzi [1] = assay: Parasitemia reactivation after immunosuppression in BALB/c mice; type: in vivo; conditions: 20 mg/kg per day for 5 days; for reactivation of infection after immunosuppression: compared to untreated mice
Method: Secondly, the experimental cure was determined using a double checking widely used in in vivo trypanocidal trials. This double checking—based on immunosuppression and PCR (Figure 2B,C, respectively)—was performed to evaluate the treatment effectiveness and the disease extent in both acute and chronic CD at the end of the in vivo timeline. The mice whose parasitemia and PCR remain negative after immunosuppression are considered cured.
Immunosuppression enhances the reactivation of any residual infection, which is proportional to the parasite survival rate.
(§1) Infection was carried out by intraperitoneal inoculation of 5 × 10^5 BTs of T. cruzi per mouse in 0.2 mL PBS [56]. The mice were treated by oral route (~200 µL) once daily for 5 consecutive days. The treatment for mice treated in the acute and chronic phases began when the infection was confirmed (9th day post-infection (dpi)) and was established that the animals had entered the chronic phase (100th dpi), respectively.
(§2) The mice were divided into six groups (n = 3 per group): 0, negative control group (uninfected and untreated mice); I, positive control group (infected and untreated mice); II, BZN group (mice infected and treated with BZN); III, 8 group (mice infected and treated with 8); IV, 10 group (mice infected and treated with 10); V, 15 group (mice infected and treated with 15). The tested compounds and BZN were prepared at 2 mg·mL^−1 in an aqueous suspension vehicle containing 5% (v/v) DMSO and 0.5% (w/v) hydroxypropyl methylcellulose, as previously reported. Therefore, doses of 20 mg·kg^−1 per day were administered for 5 consecutive days, and vehicle only was administered in the negative and positive control groups.
(§3) All in vivo assays for the evaluation of compounds in the acute and chronic CD (Scheme 1)—monitoring of parasitemia, immunosuppression, PCR [59, 60], ELISA [56], and clinical analysis [56]—were performed as previously described. PCR was based on the Spliced Leader (SL) intergenic region sequence of T. cruzi (for detailed description, see literature reported previously).

[2] = test system: epimastigotes of Trypanosoma cruzi; assay: Flow cytometry of nucleic acid levels (acridine orange); type: cell-based; conditions: IC25 concentrations, 72 h
Method: The untreated and treated epimastigotes of T. cruzi described in the NMR analysis were collected by centrifugation, washed three times in PBS and stained with […] rhodamine 123 (Rho) (Sigma-Aldrich) or acridine orange (AO) (Sigma-Aldrich) dyes in 0.5 mL PBS for 20 min at 28 °C [63]. Control epimastigotes with a fully depolarized mitochondrion were obtained by incubation for 40 min with 10 mM KCN prior to Rho loading. Non-stained parasites were also included. After elapsed time, epimastigotes were immediately processed and analyzed by flow cytometry as previously reported.
Figure S2. Nucleic acids levels of Trypanosoma cruzi exposed to benznidazole (BZN) and compounds at […]
Inhibition, in percentage, in the nucleic acids levels with respect to untntreated parasites. Values constitute means of three separate determinations ± standard deviation. Significant differences between untreated and treated parasites for α = 0.05.
(§4) (1 picture or pasted object on this page, not shown here)

Trypanosoma cruzi [3] = assay: PCR of seven organs/tissues of treated BALB/c mice (Spliced Leader sequence); type: in vivo
Method: To assess the efficacy of potential candidates by confirming the absence of infection in the target locations, PCR was carried out at the end of the in vivo timeline (Figure 2C). PCR was positive in seven organs/tissues for the untreated (control) mice groups in both phases, showing the presence of the typical nested amastigotes of the chronic CD.
as §1, §2, §3
Figure 2 (A) Parasitemia profiles of each group of mice infected with Trypanosoma cruzi and treated during the acute Chagas disease over a period of 55 days: control (untreated), benznidazole (BZN), 8, 10 and 15. Treatment days are represented in grey. […]. (B) Parasitemia reactivation by fresh blood in the chronic Chagas disease after the immunosuppression cycles for each group of mice treated during the acute and chronic phases of the disease: control (untreated), benznidazole (BZN), 8, 10, and 15. […]. (C) PCR analysis of seven organs/tissues with the Trypanosoma cruzi Spliced Leader (SL) intergenic region sequence in the chronic Chagas disease for each group of mice treated during the acute and chronic phases of the disease: (a) control (untreated), (b) benznidazole, (c) 8, (d) 10, and (e) 15.

Trypanosoma cruzi [4] = assay: Anti-T. cruzi IgG (ELISA) and splenomegaly in treated BALB/c mice; type: in vivo; conditions: treated BALB/c mice versus untreated; excluding IgG levels of chronic CD
Method: Otherwise, the immune status of the mice was evaluated—through the titer of total anti-T. cruzi IgG and the splenomegaly (Figure S1)—since it is a characteristic linked to the parasite load and the effectiveness ascribed to the potential candidates. […].
as §3
Figure S1. A) Anti-Trypanosoma cruzi immunoglobulin G levels, expressed in absorbance at 492 nm, at different days post-infection (dpi) for each group of mice treated during the acute and chronic phases of Chagas disease: control (untreated), benznidazole (BZN), 8, 10 and 15. Blank and uninfected mice are also […]
included. […] Values are the means of three mice ± standard deviation. (IS) immunosuppression. * Significant differences between untreated and treated mice for α =
0.05. B) Weight percentage of spleens in the chronic Chagas disease for each group of mice treated during the acute and chronic phases of the disease: control (untreated), benznidazole (BZN), 8, 10 and 15. Values are the means of three mice ± standard deviation. In brackets: reduction of splenomegaly in comparison to […]
as §4

[5] = test system: Trypanosoma cruzi intracellular amastigotes; assay: Screening against intracellular amastigotes in Vero cells (Giemsa counting); type: cell-based; conditions: for IC50: Trypanosoma cruzi, Table 1, intracellular amastigotes in Vero cells, 72 h, read-out: Activity IC50 Amast.
Method: (§5) Trypanocidal activity against amastigotes was determined according to the literature reported previously. […]. […] Each compound concentration was tested in triplicate in four separate determinations.

[6] = type: in vivo; conditions: BALB/c mice, 20 mg/kg per day for 5 days
Method: Finally, biochemical analyses were performed to assess the toxicity associated to the treatment of compound 8. Kidney, heart and liver biochemical markers were measured, including values from uninfected and BZN-treated mice (Table S2). […] The low toxicity allows compound 8 to be tested at higher doses, establishing an improved treatment schedule based on pharmacokinetics in order to reach a total parasite clearance.
as §3

Mammalian Vero cells = assay: Cytotoxicity test on Vero cells (resazurin); type: cell-based; conditions: Chlorocebus sabaeus, Table 1, Vero cells, 48 h + 24 h resazurin, read-out: Toxicity IC50 Vero Cell
Method: Mammalian Vero cells (EACC No. 84113001), cultured as previously reported, were used to determine the cytotoxicity of the tested compounds [56]. In short, 1.25 × 10^4 Vero cells·mL^−1 were treated by adding the compounds at a concentration range from 400 to 1 µM in 96-well microplates (200 µL·well^−1) at 37 °C for 48 h. Subsequently, resazurin sodium salt (Sigma-Aldrich) was added to be incubated for further 24 h. Finally, cell viability was determined following the same procedure as described to assess the trypanocidal activity in the epimastigotes. Each compound concentration was tested in triplicate in three independent experiments.

Trypanosoma cruzi [7] = assay: Parasitemia monitoring in infected BALB/c mice, acute Chagas disease; type: in vivo; conditions: oral 20 mg/kg per day for 5 days from 9th dpi, versus untreated
Method: as §1, §2, §3

[8] = test system: Trypanosoma cruzi bloodstream trypomastigotes (BTs); assay: Screening against bloodstream trypomastigotes (resazurin); type: cell-based; conditions: for IC50: Trypanosoma cruzi, Table 1, bloodstream trypomastigotes, 24 h treatment + 4 h resazurin, read-out: Activity IC50 Trypomast.
Method: 2 × 10^6 Bloodstream trypomastigotes (BTs), obtained by cardiac puncture from infected BALB/c mice as previously described, were treated by adding the tested compounds at a concentration range from 50 to 0.1 µM in 96-well microplates (200 µL·well^−1) at 37 °C. After 24 h of treatment, resazurin sodium salt (Sigma-Aldrich) was added to be incubated for further 4 h. Finally, trypanocidal activity was determined following the same procedure as described to assess the trypanocidal activity in the epimastigotes. Each compound concentration was tested in triplicate in three independent experiments.

[9] = test system: epimastigotes of T. cruzi Arequipa strain; assay: Screening against extracellular epimastigotes (resazurin); type: cell-based, Trypanosoma cruzi; conditions: for IC50: Trypanosoma cruzi
Method: Trypanocidal activity against epimastigotes of T. cruzi Arequipa strain (MHOM/Pe/2011/Arequipa, discrete typing unit V) was tested as previously described. In short, 5 × 10^5 epimastigotes·mL^−1 were treated by adding the tested compounds at a concentration range from 100 to 0.2 µM in 96-well microplates (200 µL·well^−1) for 48 h. Subsequently, resazurin sodium salt (Sigma-Aldrich) was added to be incubated for further 24 h. Finally, the absorbance was measured, and the trypanocidal activity was expressed as the IC50 (inhibitory concentration 50) using GraphPad Prism 6 software. Each compound concentration was tested in triplicate in three independent experiments.

[10] = test system: Trypanosoma cruzi amastigotes in Vero cells; assay: Infection rate and amastigotes per Vero cell over 10 days; type: cell-based; conditions: IC25 concentrations, measured at 2 days intervals for 10 days
Method: Before going ahead on in vivo trials, the in vitro infection rate and the average number of amastigotes per Vero cell were also measured at 2 days intervals for 10 days after treating the infected cultures with BZN and potential candidates (8, 10, and 15) (Figure 1) at ICH25 concentrations resulting from amastigotes screening. […]. Fast-acting drugs are urgently needed, and this feature is an additional advantage since they can eliminate the parasite in a few doses.
as §5
Figure 1 (A) Percentage of infected Vero cells and (B) number of amastigotes of Trypanosoma cruzi per Vero cell exposed to benznidazole (BZN), 8, 10 and 15. Values constitute means of three separate determinations ± standard deviation. * Significant differences between untreated and treated parasites for α = 0.05. dpi, days post-infection.

Trypanosoma cruzi Fe-SOD = assay: SOD enzymatic inhibition, Fe-SOD; type: biochemical; conditions: at 100 µM
Method: (§6) Excreted Fe-SOD protein—obtained and quantified as previously described [64]—and commercial Cu/Zn-SOD from human erythrocytes (Sigma-Aldrich) were exposed to the tested compounds at a concentration range from 100 to 0.1 µM to determine in vitro activities using the method previously described.

[11] = target: T1, human erythrocytes CuZn-SOD (Homo sapiens, UniProt P00441); assay: SOD enzymatic inhibition, CuZn-SOD; type: biochemical; conditions: 100 to 0.1 µM, read-out: CuZn-SOD IC50 (in brackets)
T1 construct: commercial Cu/Zn-SOD from human erythrocytes (Sigma-Aldrich); purchased Sigma-Aldrich; host or cells: human erythrocytes
T1 sequence (P00441 whole entry): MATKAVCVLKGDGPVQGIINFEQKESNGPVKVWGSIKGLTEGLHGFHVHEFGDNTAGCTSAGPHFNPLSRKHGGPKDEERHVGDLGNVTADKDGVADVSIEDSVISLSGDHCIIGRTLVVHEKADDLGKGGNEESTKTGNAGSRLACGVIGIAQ
Method: as §6

[12] = test system: epimastigotes of T. cruzi Arequipa; assay: 1H NMR analysis of excreted metabolites; type: cell-based, Trypanosoma cruzi; conditions: IC25 concentrations, 72 h
Method: 5 × 10^5 epimastigotes·mL^−1 of T. cruzi Arequipa were treated by adding the tested compounds at IC25 concentrations in 25 cm^2 cell culture flasks at 28 °C for 72 h. Untreated controls were also included. Cultures were then centrifuged and filtered, and the metabolites of the supernatants were analyzed using a ^1H NMR spectrometer (VARIAN DIRECT DRIVE 500 MHz […]) with AutoX probe, D2O as solvent and 2,2-dimethyl-2-silapentane-5-sulphonate as the reference signal. Chemical shifts were expressed in parts per million (ppm), and analyses were conducted as previously reported.

SMILES: O=C(Cn1ccnc1[N+](=O)[O-])NCc1ccccc1 [BZN, benznidazole, reference compound]
- reactivation of infection after immunosuppression (Trypanosoma cruzi [1]; mice treated in acute CD): 81%
- reactivation of infection after immunosuppression (Trypanosoma cruzi [1]; mice treated in chronic CD): 68%
- reduction in nucleic acid levels with respect to untreated parasites [2]: 22.4%
- negative PCR (parasite-free locations) (Trypanosoma cruzi [3]; mice treated in acute CD): 2/7
- negative PCR (parasite-free locations) (Trypanosoma cruzi [3]; mice treated in chronic CD): 3/7
- total anti-T. cruzi IgG levels and splenomegaly (Trypanosoma cruzi [4]): significant reduction
- IC50 [5]: 8.3 ± 0.7 µM
- kidney, heart and liver biochemical markers [6]: disturbed 2 days after treatment
- IC50 (Mammalian Vero cells): 80.4 ± 7.1 µM
- parasitemia levels (counting BTs) during the acute CD (Trypanosoma cruzi [7]): remarkable parasitemia reduction
- IC50 [8]: 12.4 ± 1.1 µM

SMILES: CSc1ccc(C[Se][Se]Cc2ccc(SC)cc2)cc1 [compound 10]
- Selectivity Index Epimast. ([9]; IC50 Vero cells/IC50 epimastigotes): 75
- IC50 ([9]; Table 1, T. cruzi epimastigotes, 48 h treatment + 24 h resazurin, read-out: Activity IC50 Epimast.): 1.8 ± 0.2 µM
- IC50 ([9]; Table S1, cultured epimastigote form of T. cruzi, read-out: Activity IC50): ≤ 10 µM
- infection rate and average number of amastigotes per Vero cell [10]: decrease in both infection rate and number of amastigotes per cell in a time-dependent manner
- reactivation of infection after immunosuppression (in words) (Trypanosoma cruzi [1]; acute and chronic CD): light activity
- Fe-SOD inhibition (Trypanosoma cruzi Fe-SOD): 100%
- total anti-T. cruzi IgG levels and splenomegaly (Trypanosoma cruzi [4]): Slight or non-significant reductions
- Selectivity Index Amast. ([5]; IC50 Vero cells/IC50 amastigotes): 112
- IC50 [5]: 1.2 ± 0.2 µM
- CC50 (Mammalian Vero cells; 72 h): 135 ± 6.3 µM
- IC50 [11]: > 100 µM
- variation of excreted metabolites versus untreated parasites [12]: < 10%
- parasitemia levels (counting BTs) during the acute CD (Trypanosoma cruzi [7]): slight activity
- Selectivity Index Trypomast. ([8]; IC50 Vero cells/IC50 trypomastigotes): 79
- IC50 [8]: 1.7 ± 0.3 µM
